According to the supplement of paper PMC10307832:

Experiments:
Assay in all cases: relative viability (nuclei count vs DMSO), 5 days (fraction); higher = more cells survive
[1] = compound: CC1=C(C(=O)N2C=CSC2=N1)CCN3CCC(=C(C4=CC=CC=C4)C5=CC=C(C=C5)F)CC3 + COc1cccc2cc(-c3nc([C@H]4CC[C@H](C(=O)O)CC4)n4ncnc(N)c34)[nH]c12 [OSI-027] (partner 0.5 µM)
Method in brief: (§1)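 The day after seeding in 1536-well plates, lung cancer cell lines were treated by pin tool with a single drug, or with a fixed anchor-drug dose together with five library-drug doses (not always all listed) in √10 steps. After 5 days, a combined fix-and-stain solution (final 0.05% Triton X-100, 1% formaldehyde, 1 ug/ml Hoechst) was added. Nuclei counted on 4× images gave relative viability as treated counts over vehicle counts, reported as the median of duplicate plates.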

[2] = compound: CC1=C(C(=O)N2C=CSC2=N1)CCN3CCC(=C(C4=CC=CC=C4)C5=CC=C(C=C5)F)CC3 + CC(=O)Nc1cccc(-n2c(=O)n(C3CC3)c(=O)c3c(Nc4ccc(I)cc4F)n(C)c(=O)c(C)c32)c1 [Trametinib] (partner 0.02 µM)
Method in brief: as §1

[3] = compound: CC1=C(C(=O)N2C=CSC2=N1)CCN3CCC(=C(C4=CC=CC=C4)C5=CC=C(C=C5)F)CC3 + N=C(N)NC(=N)NCCc1ccccc1 [Phenformin] (partner 250 µM)
Method in brief: as §1

[4] = compound: CC1=C(C(=O)N2C=CSC2=N1)CCN3CCC(=C(C4=CC=CC=C4)C5=CC=C(C=C5)F)CC3 + C[C@@H](Oc1cc(-c2cnn(C3CCNCC3)c2)cnc1N)c1c(Cl)ccc(F)c1Cl [Crizotinib] (partner 1 µM)
Method in brief: as §1

NCI-H2009 was tested, and the relative viability ([1]; first compound 0.08 µM) was 0.638, the relative viability ([1]; first compound 0.253 µM) was 0.619 and the relative viability ([1]; first compound 0.8 µM) was 0.616. For the same cell line, the relative viability ([1]; first compound 2.53 µM) was 0.637, the relative viability ([1]; first compound 8 µM) was 0.527 and the relative viability ([2]; first compound 0.08 µM) was 0.36. It also gave a relative viability ([2]; first compound 0.253 µM) of 0.265, a relative viability ([2]; first compound 0.8 µM) of 0.279 and a relative viability ([2]; first compound 2.53 µM) of 0.287. The relative viability ([2]; first compound 8 µM) was 0.284, the relative viability ([3]; first compound 0.08 µM) was 0.541 and the relative viability ([3]; first compound 0.253 µM) was 0.492. It also gave a relative viability ([3]; first compound 0.8 µM) of 0.493, a relative viability ([3]; first compound 2.53 µM) of 0.49 and a relative viability ([3]; first compound 8 µM) of 0.362. For the same cell line, the relative viability ([4]; first compound 0.08 µM) was 1.25, the relative viability ([4]; first compound 0.253 µM) was 1.12 and the relative viability ([4]; first compound 0.8 µM) was 0.968. The relative viability ([4]; first compound 2.53 µM) was 1.14 and the relative viability ([4]; first compound 8 µM) was 1.11.
NCI-H2023 was tested, and the relative viability ([1]; first compound 0.08 µM) was 0.4, the relative viability ([1]; first compound 0.253 µM) was 0.404 and the relative viability ([1]; first compound 0.8 µM) was 0.386. For the same cell line, the relative viability ([1]; first compound 2.53 µM) was 0.39, the relative viability ([1]; first compound 8 µM) was 0.301 and the relative viability ([2]; first compound 0.08 µM) was 0.592. For the same cell line, the relative viability ([2]; first compound 0.253 µM) was 0.478, the relative viability ([2]; first compound 0.8 µM) was 0.588 and the relative viability ([2]; first compound 2.53 µM) was 0.617. For the same cell line, the relative viability ([2]; first compound 8 µM) was 0.452, the relative viability ([3]; first compound 0.08 µM) was 0.441 and the relative viability ([3]; first compound 0.253 µM) was 0.312. It also gave a relative viability ([3]; first compound 0.8 µM) of 0.426, a relative viability ([3]; first compound 2.53 µM) of 0.389 and a relative viability ([3]; first compound 8 µM) of 0.251. For the same cell line, the relative viability ([4]; first compound 0.08 µM) was 0.69, the relative viability ([4]; first compound 0.253 µM) was 0.566 and the relative viability ([4]; first compound 0.8 µM) was 0.725. For the same cell line, the relative viability ([4]; first compound 2.53 µM) was 0.649 and the relative viability ([4]; first compound 8 µM) was 0.563.
With NCI-H2085 the relative viability ([1]; first compound 0.08 µM) was 0.818, the relative viability ([1]; first compound 0.253 µM) was 0.704 and the relative viability ([1]; first compound 0.8 µM) was 0.87. For the same cell line, the relative viability ([1]; first compound 2.53 µM) was 0.799, the relative viability ([1]; first compound 8 µM) was 0.464 and the relative viability ([2]; first compound 0.08 µM) was 0.484. It also gave a relative viability ([2]; first compound 0.253 µM) of 0.52, a relative viability ([2]; first compound 0.8 µM) of 0.491 and a relative viability ([2]; first compound 2.53 µM) of 0.66. It also gave a relative viability ([2]; first compound 8 µM) of 0.452, a relative viability ([3]; first compound 0.08 µM) of 0.769 and a relative viability ([3]; first compound 0.253 µM) of 0.699. For the same cell line, the relative viability ([3]; first compound 0.8 µM) was 0.661, the relative viability ([3]; first compound 2.53 µM) was 0.762 and the relative viability ([3]; first compound 8 µM) was 0.591. For the same cell line, the relative viability ([4]; first compound 0.08 µM) was 0.692, the relative viability ([4]; first compound 0.253 µM) was 0.986 and the relative viability ([4]; first compound 0.8 µM) was 0.921. It also gave a relative viability ([4]; first compound 2.53 µM) of 0.861 and a relative viability ([4]; first compound 8 µM) of 0.649.
Work on NCI-H2087 yielded a relative viability ([1]; first compound 0.08 µM) of 0.364, a relative viability ([1]; first compound 0.253 µM) of 0.587 and a relative viability ([1]; first compound 0.8 µM) of 0.696. For the same cell line, the relative viability ([1]; first compound 2.53 µM) was 0.566, the relative viability ([1]; first compound 8 µM) was 0.237 and the relative viability ([2]; first compound 0.08 µM) was 0.177. The relative viability ([2]; first compound 0.253 µM) was 0.211, the relative viability ([2]; first compound 0.8 µM) was 0.256 and the relative viability ([2]; first compound 2.53 µM) was 0.255. For the same cell line, the relative viability ([2]; first compound 8 µM) was 0.705, the relative viability ([3]; first compound 0.08 µM) was 0.333 and the relative viability ([3]; first compound 0.253 µM) was 0.434. The relative viability ([3]; first compound 0.8 µM) was 0.529, the relative viability ([3]; first compound 2.53 µM) was 0.585 and the relative viability ([3]; first compound 8 µM) was 0.323. For the same cell line, the relative viability ([4]; first compound 0.08 µM) was 0.818, the relative viability ([4]; first compound 0.253 µM) was 0.813 and the relative viability ([4]; first compound 0.8 µM) was 0.94. For the same cell line, the relative viability ([4]; first compound 2.53 µM) was 0.944 and the relative viability ([4]; first compound 8 µM) was 0.525.
For NCI-H2126, the relative viability ([1]; first compound 0.08 µM) was 0.719, the relative viability ([1]; first compound 0.253 µM) was 0.753 and the relative viability ([1]; first compound 0.8 µM) was 0.699. It also gave a relative viability ([1]; first compound 2.53 µM) of 0.779, a relative viability ([1]; first compound 8 µM) of 0.792 and a relative viability ([2]; first compound 0.08 µM) of 0.591. For the same cell line, the relative viability ([2]; first compound 0.253 µM) was 0.514, the relative viability ([2]; first compound 0.8 µM) was 0.58 and the relative viability ([2]; first compound 2.53 µM) was 0.607. It also gave a relative viability ([2]; first compound 8 µM) of 0.466, a relative viability ([3]; first compound 0.08 µM) of 0.518 and a relative viability ([3]; first compound 0.253 µM) of 0.541. For the same cell line, the relative viability ([3]; first compound 0.8 µM) was 0.525, the relative viability ([3]; first compound 2.53 µM) was 0.555 and the relative viability ([3]; first compound 8 µM) was 0.517. The relative viability ([4]; first compound 0.08 µM) was 1.08, the relative viability ([4]; first compound 0.253 µM) was 1.03 and the relative viability ([4]; first compound 0.8 µM) was 1.09. The relative viability ([4]; first compound 2.53 µM) was 1.02 and the relative viability ([4]; first compound 8 µM) was 0.992.
Work on NCI-H2170 yielded a relative viability ([1]; first compound 0.08 µM) of 0.774, a relative viability ([1]; first compound 0.253 µM) of 0.673 and a relative viability ([1]; first compound 0.8 µM) of 0.734. For the same cell line, the relative viability ([1]; first compound 2.53 µM) was 0.726, the relative viability ([1]; first compound 8 µM) was 0.604 and the relative viability ([2]; first compound 0.08 µM) was 1.21. It also gave a relative viability ([2]; first compound 0.253 µM) of 0.894, a relative viability ([2]; first compound 0.8 µM) of 0.964 and a relative viability ([2]; first compound 2.53 µM) of 0.792. For the same cell line, the relative viability ([2]; first compound 8 µM) was 0.637, the relative viability ([3]; first compound 0.08 µM) was 0.42 and the relative viability ([3]; first compound 0.253 µM) was 0.42. It also gave a relative viability ([3]; first compound 0.8 µM) of 0.37, a relative viability ([3]; first compound 2.53 µM) of 0.417 and a relative viability ([3]; first compound 8 µM) of 0.39. For the same cell line, the relative viability ([4]; first compound 0.08 µM) was 1.2, the relative viability ([4]; first compound 0.253 µM) was 1.17 and the relative viability ([4]; first compound 0.8 µM) was 1.36. For the same cell line, the relative viability ([4]; first compound 2.53 µM) was 1.11 and the relative viability ([4]; first compound 8 µM) was 0.927.
Work on NCI-H2228 yielded a relative viability ([1]; first compound 0.08 µM) of 0.567, a relative viability ([1]; first compound 0.253 µM) of 0.532 and a relative viability ([1]; first compound 0.8 µM) of 0.632. For the same cell line, the relative viability ([1]; first compound 2.53 µM) was 0.597, the relative viability ([1]; first compound 8 µM) was 0.378 and the relative viability ([2]; first compound 0.08 µM) was 0.481. For the same cell line, the relative viability ([2]; first compound 0.253 µM) was 0.417, the relative viability ([2]; first compound 0.8 µM) was 0.612 and the relative viability ([2]; first compound 2.53 µM) was 0.506. For the same cell line, the relative viability ([2]; first compound 8 µM) was 0.332, the relative viability ([3]; first compound 0.08 µM) was 0.261 and the relative viability ([3]; first compound 0.253 µM) was 0.301. For the same cell line, the relative viability ([3]; first compound 0.8 µM) was 0.376, the relative viability ([3]; first compound 2.53 µM) was 0.348 and the relative viability ([3]; first compound 8 µM) was 0.256. It also gave a relative viability ([4]; first compound 0.08 µM) of 0.6, a relative viability ([4]; first compound 0.253 µM) of 0.486 and a relative viability ([4]; first compound 0.8 µM) of 0.376. It also gave a relative viability ([4]; first compound 2.53 µM) of 0.539 and a relative viability ([4]; first compound 8 µM) of 0.322.
In the case of NCI-H2347, the relative viability ([1]; first compound 0.08 µM) is reported as 0.371, the relative viability ([1]; first compound 0.253 µM) is reported as 0.425 and the relative viability ([1]; first compound 0.8 µM) is reported as 0.406. It also gave a relative viability ([1]; first compound 2.53 µM) of 0.332, a relative viability ([1]; first compound 8 µM) of 0.349 and a relative viability ([2]; first compound 0.08 µM) of 0.271. It also gave a relative viability ([2]; first compound 0.253 µM) of 0.267, a relative viability ([2]; first compound 0.8 µM) of 0.262 and a relative viability ([2]; first compound 2.53 µM) of 0.352. It also gave a relative viability ([2]; first compound 8 µM) of 0.309, a relative viability ([3]; first compound 0.08 µM) of 0.299 and a relative viability ([3]; first compound 0.253 µM) of 0.403. The relative viability ([3]; first compound 0.8 µM) was 0.317, the relative viability ([3]; first compound 2.53 µM) was 0.421 and the relative viability ([3]; first compound 8 µM) was 0.397. It also gave a relative viability ([4]; first compound 0.08 µM) of 0.692, a relative viability ([4]; first compound 0.253 µM) of 0.801 and a relative viability ([4]; first compound 0.8 µM) of 0.675. It also gave a relative viability ([4]; first compound 2.53 µM) of 0.508 and a relative viability ([4]; first compound 8 µM) of 0.684.
